Columns and labels:
Assay in all cases: relative viability (nuclei count vs DMSO), 5 days (fraction); higher = more cells survive
201T = test system: 201T
How it was run: (§1)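 A single step with final 0.05% Triton X-100, 1% formaldehyde and 1 ug/ml Hoechst fixed the cells and stained nuclei 5 days after treatment. Lung cancer cell lines in 1536-well plates had been treated by pin tool the day after seeding with one drug alone or a fixed anchor-drug dose plus five library-drug doses (not always all listed) in √10 steps, and nuclei were counted on 4× images. Relative viability is the ratio of nuclei in treated wells to nuclei in vehicle wells, taken as the median of duplicate plates.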

A-427 = test system: A-427
How it was run: as §1

COR-L23 = test system: COR-L23
How it was run: as §1

H3255 = test system: H3255
How it was run: as §1

LCLC-103H = test system: LCLC-103H
How it was run: as §1

LCLC-97TM1 = test system: LCLC-97TM1
How it was run: as §1

LK-2 = test system: LK-2
How it was run: as §1

LU99A = test system: LU99A
How it was run: as §1

NCI-H1563 = test system: NCI-H1563
How it was run: as §1

NCI-H1650 = test system: NCI-H1650
How it was run: as §1

NCI-H1651 = test system: NCI-H1651
How it was run: as §1

NCI-H1793 = test system: NCI-H1793
How it was run: as §1

NCI-H1944 = test system: NCI-H1944
How it was run: as §1

NCI-H2347 = test system: NCI-H2347
How it was run: as §1

NCI-H23 = test system: NCI-H23
How it was run: as §1

NCI-H460 = test system: NCI-H460
How it was run: as §1

NCI-H650 = test system: NCI-H650
How it was run: as §1

NCI-H838 = test system: NCI-H838
How it was run: as §1

PC-14 = test system: PC-14
How it was run: as §1

PC-3 [JPC-3] = test system: PC-3 [JPC-3]
How it was run: as §1

RERF-LC-KJ = test system: RERF-LC-KJ
How it was run: as §1

SW 1573 = test system: SW 1573
How it was run: as §1

SW 900 = test system: SW 900
How it was run: as §1

**Q.** What does the source list for Clc1ccc(Nc2nnc(Cc3ccncc3)c3ccccc23)cc1 [Vatalanib] + Nc1nc2[nH]cc(CCc3ccc(C(=O)N[C@@H](CCC(=O)O)C(=O)O)cc3)c2c(=O)[nH]1 [Pemetrexed] (partner 0.2 µM)?
**A.** relative viability (201T; first compound 0.04 µM): 0.305; relative viability (201T; first compound 0.1265 µM): 0.335; relative viability (201T; first compound 0.4 µM): 0.337; relative viability (201T; first compound 1.265 µM): 0.359; relative viability (201T; first compound 4 µM): 0.311; relative viability (A-427; first compound 0.04 µM): 0.98; relative viability (A-427; first compound 0.1265 µM): 0.957; relative viability (A-427; first compound 0.4 µM): 0.993; relative viability (A-427; first compound 4 µM): 0.947; relative viability (COR-L23; first compound 0.04 µM): 0.204; relative viability (COR-L23; first compound 0.1265 µM): 0.194; relative viability (COR-L23; first compound 0.4 µM): 0.212; relative viability (COR-L23; first compound 1.265 µM): 0.201; relative viability (COR-L23; first compound 4 µM): 0.208; relative viability (H3255; first compound 0.04 µM): 0.543; relative viability (H3255; first compound 0.1265 µM): 0.536; relative viability (H3255; first compound 0.4 µM): 0.529; relative viability (H3255; first compound 1.265 µM): 0.512; relative viability (H3255; first compound 4 µM): 0.523; relative viability (LCLC-103H; first compound 0.04 µM): 0.343; relative viability (LCLC-103H; first compound 0.1265 µM): 0.428; relative viability (LCLC-103H; first compound 0.4 µM): 0.449; relative viability (LCLC-103H; first compound 1.265 µM): 0.487; relative viability (LCLC-103H; first compound 4 µM): 0.453; relative viability (LCLC-97TM1; first compound 0.04 µM): 0.2; relative viability (LCLC-97TM1; first compound 0.1265 µM): 0.177; relative viability (LCLC-97TM1; first compound 0.4 µM): 0.177; relative viability (LCLC-97TM1; first compound 1.265 µM): 0.149; relative viability (LCLC-97TM1; first compound 4 µM): 0.172; relative viability (LK-2; first compound 0.04 µM): 0.241; relative viability (LK-2; first compound 0.1265 µM): 0.252; relative viability (LK-2; first compound 0.4 µM): 0.319; relative viability (LK-2; first compound 1.265 µM): 0.235; relative viability (LK-2; first compound 4 µM): 0.207; relative viability (LU99A; first compound 0.04 µM): 0.182; relative viability (LU99A; first compound 0.1265 µM): 0.162; relative viability (LU99A; first compound 0.4 µM): 0.17; relative viability (LU99A; first compound 1.265 µM): 0.189; relative viability (LU99A; first compound 4 µM): 0.162; relative viability (NCI-H1563; first compound 0.04 µM): 0.804; relative viability (NCI-H1563; first compound 0.1265 µM): 0.772; relative viability (NCI-H1563; first compound 0.4 µM): 0.857; relative viability (NCI-H1563; first compound 1.265 µM): 0.758; relative viability (NCI-H1563; first compound 4 µM): 0.77; relative viability (NCI-H1650; first compound 0.04 µM): 0.359; relative viability (NCI-H1650; first compound 0.1265 µM): 0.305; relative viability (NCI-H1650; first compound 0.4 µM): 0.323; relative viability (NCI-H1650; first compound 1.265 µM): 0.388; relative viability (NCI-H1650; first compound 4 µM): 0.388; relative viability (NCI-H1651; first compound 0.04 µM): 0.512; relative viability (NCI-H1651; first compound 0.1265 µM): 0.558; relative viability (NCI-H1651; first compound 0.4 µM): 0.496; relative viability (NCI-H1651; first compound 1.265 µM): 0.543; relative viability (NCI-H1651; first compound 4 µM): 0.526; relative viability (NCI-H1793; first compound 0.04 µM): 0.789; relative viability (NCI-H1793; first compound 0.1265 µM): 0.817; relative viability (NCI-H1793; first compound 0.4 µM): 1.06; relative viability (NCI-H1793; first compound 1.265 µM): 0.747; relative viability (NCI-H1793; first compound 4 µM): 0.714; relative viability (NCI-H1944; first compound 0.04 µM): 0.544; relative viability (NCI-H1944; first compound 0.1265 µM): 0.669; relative viability (NCI-H1944; first compound 0.4 µM): 0.63; relative viability (NCI-H1944; first compound 1.265 µM): 0.583; relative viability (NCI-H1944; first compound 4 µM): 0.558; relative viability (NCI-H2347; first compound 0.04 µM): 0.444; relative viability (NCI-H2347; first compound 0.1265 µM): 0.419; relative viability (NCI-H2347; first compound 0.4 µM): 0.43; relative viability (NCI-H2347; first compound 1.265 µM): 0.487; relative viability (NCI-H2347; first compound 4 µM): 0.41; relative viability (NCI-H23; first compound 0.04 µM): 0.579; relative viability (NCI-H23; first compound 0.1265 µM): 0.654; relative viability (NCI-H23; first compound 0.4 µM): 0.728; relative viability (NCI-H23; first compound 1.265 µM): 0.59; relative viability (NCI-H23; first compound 4 µM): 0.544; relative viability (NCI-H460; first compound 0.04 µM): 0.0651; relative viability (NCI-H460; first compound 0.1265 µM): 0.0511; relative viability (NCI-H460; first compound 0.4 µM): 0.0612; relative viability (NCI-H460; first compound 1.265 µM): 0.0684; relative viability (NCI-H460; first compound 4 µM): 0.0605; relative viability (NCI-H650; first compound 0.04 µM): 0.931; relative viability (NCI-H650; first compound 0.1265 µM): 0.833; relative viability (NCI-H650; first compound 0.4 µM): 1.03; relative viability (NCI-H650; first compound 1.265 µM): 0.885; relative viability (NCI-H650; first compound 4 µM): 0.996; relative viability (NCI-H838; first compound 0.04 µM): 0.243; relative viability (NCI-H838; first compound 0.1265 µM): 0.226; relative viability (NCI-H838; first compound 0.4 µM): 0.261; relative viability (NCI-H838; first compound 1.265 µM): 0.239; relative viability (NCI-H838; first compound 4 µM): 0.239; relative viability (PC-14; first compound 0.04 µM): 0.135; relative viability (PC-14; first compound 0.1265 µM): 0.125; relative viability (PC-14; first compound 0.4 µM): 0.125; relative viability (PC-14; first compound 1.265 µM): 0.129; relative viability (PC-14; first compound 4 µM): 0.129; relative viability (PC-3 [JPC-3]; first compound 0.04 µM): 1.02; relative viability (PC-3 [JPC-3]; first compound 0.1265 µM): 0.943; relative viability (PC-3 [JPC-3]; first compound 0.4 µM): 0.803; relative viability (PC-3 [JPC-3]; first compound 1.265 µM): 0.456; relative viability (PC-3 [JPC-3]; first compound 4 µM): 0.964; relative viability (RERF-LC-KJ; first compound 0.04 µM): 0.489; relative viability (RERF-LC-KJ; first compound 0.1265 µM): 0.476; relative viability (RERF-LC-KJ; first compound 0.4 µM): 0.484; relative viability (RERF-LC-KJ; first compound 1.265 µM): 0.502; relative viability (RERF-LC-KJ; first compound 4 µM): 0.458; relative viability (SW 1573; first compound 0.1265 µM): 0.72; relative viability (SW 1573; first compound 0.4 µM): 0.975; relative viability (SW 1573; first compound 1.265 µM): 0.771; relative viability (SW 1573; first compound 4 µM): 0.794; relative viability (SW 900; first compound 0.04 µM): 0.476; relative viability (SW 900; first compound 0.1265 µM): 0.471; relative viability (SW 900; first compound 0.4 µM): 0.467; relative viability (SW 900; first compound 1.265 µM): 0.478; relative viability (SW 900; first compound 4 µM): 0.464
